Measured values published in paper PMC8325119, “A Novel Class of Functionalized Synthetic Fluoroquinolones with Dual Antiproliferative - Antimicrobial Capacities” (Asian Pacific Journal of Cancer Prevention : APJCP, 2021).
Converted amounts (≈) assume the structure as drawn. “And” between values parts separate entries of the source, which are not always exact repeats. Identical values can stand only once. Like-named read-outs stand apart in the source and are kept apart here.

Experiments:
A549 cell line = assay: SRB cytotoxicity assay, A549 lung cancer cell line
Protocol: (§1) All reagents and chemicals of analytical grade were obtained from Sigma (Dorset, UK); unless stated otherwise. All chemicals, reagents and solvents (of analytical grade) were used directly without further purification. MCF7 cell line ATCC® HTB-22™, T47D cell line ATCC® HTB-133™, K562 cell line ATCC® CCL-243™, Panc1 cell line ATCC® CRL-1469™. A375.S2 cell line ATCC® CRL-1872™, A549 cell line ATCC® CCL-185™, HELA cell line ATCC® CCL-2™ were cultured in Dulbecco’s modified eagle’s medium (DMEM). (DMEM) containing foetal bovine serum (FBS) (Bio Whittaker, Verviers, Belgium), 4-(2-hydroxyethyl)-1-piperazine ethane sulfonic acid (HEPES) Buffer, L-glutamine, gentamicin, penicillin, and streptomycin sulphate (Sigma, St. Luis, MO, USA), trypsin, trypan blue, Ciprofloxacin HCl from Aarti drugs Ltd/India, was a kind gift from Pharma International Company- Amman; Fluconazole from Neopharma, United Arab Emirates, a kind gift from Pharmaceutical Research Unit, Amman; Trypon soya agar (TSA), trypon soya broth (TSB), sabouraud dextrose agar (SDA) were obtained from Liofilchem (Italy) or Oxoid LTD (Basingstoke, England), they were reconstituted and sterilized by autoclave at 121 °C for 15 min.
(§2) The cytotoxicity measurements were determined using Sulforhodamine B (SRB) colorimetric assay for cytotoxicity screening. The mechanism of reduction of cell viability was adopted as described previously (Arabiyat et al., 2016a,b; 2017; Alabsi et al., 2018; Jumah, 2018; AlShahrabi et al., 2020). Human periodontal ligament fibroblasts (PDL) are a primary normal cell culture for verification of selective cytotoxicity. […] Selectivity ratio as indicative factor of the safety of compounds was calculated by dividing IC50 of tested compound on normal fibroblasts by IC50 of the same compound on specific pathological cell line (Hoffman et al., 2011).

A375.S2 cell line = assay: SRB cytotoxicity assay, A375.S2 melanoma cell line
Protocol: as §1, §2

MCF7 cell line = assay: SRB cytotoxicity assay, MCF7 breast cancer cell line
Protocol: as §1, §2

HELA cell line = assay: SRB cytotoxicity assay, HELA cervical cancer cell line
Protocol: as §1, §2

K562 cell line = assay: SRB cytotoxicity assay, K562 leukaemia cell line
Protocol: as §1, §2

PANC 1 cell line = assay: SRB cytotoxicity assay, PANC 1 pancreatic cancer cell line
Protocol: as §1, §2

T47D cell line = assay: cells; settings: 72 h; for IC50: read-out: Cytotoxicity IC50 value, T47D cell line; for Cytotoxicity IC50 value, T47D cell line: value in brackets
Protocol: as §1, §2

PDL Fibroblasts = assay: SRB cytotoxicity on normal periodontal ligament fibroblasts, selective cytotoxicity; type: cell-based, Human; settings: for IC50 / IC50 value PDL Fibroblasts: normal fibroblasts, SRB, 72 h, mean ± SD; for Selectivity index SI (HELA): IC50 on PDL fibroblasts divided by IC50 on HELA; for Selectivity index SI (K562): IC50 on PDL fibroblasts divided by IC50 on K562
Protocol: as §2

[1] = Homo sapiens, A549, 72 h, read-out: Cytotoxicity IC50 value, A549 cell line
[2] = Homo sapiens, A375-S2, 72 h, read-out: Cytotoxicity IC50 value, A375.S2 cell line
[3] = Homo sapiens, MCF7, 72 h, read-out: Cytotoxicity IC50 value, MCF7 cell line
[4] = Homo sapiens, HeLa, 72 h, read-out: Cytotoxicity IC50 value, HELA cell line, SRB, 72 h, 0.1-200 μg/mL range, mean ± SD, value in brackets
[5] = Homo sapiens, HeLa, 72 h, read-out: Cytotoxicity IC50 value, HELA cell line, SRB, 72 h, 0.1-200 μg/mL range, mean ± SD, NI = lack of cytotoxicity in range
[6] = Homo sapiens, K562, 72 h, read-out: Cytotoxicity IC50 value, K562 cell line, SRB, 72 h, 0.1-200 μg/mL range, mean ± SD, value in brackets
[7] = Homo sapiens, K562, 72 h, read-out: Cytotoxicity IC50 value, K562 cell line, SRB, 72 h, 0.1-200 μg/mL range, mean ± SD, NI = lack of cytotoxicity in range
[8] = Homo sapiens, PANC-1, 72 h, read-out: Cytotoxicity IC50 value, PANC 1 cell line
[9] = Homo sapiens, Fibroblast, 0.1-200 μg/mL range, NI = lack of cytotoxicity in range
[10] = Homo sapiens, Fibroblast, value in brackets
[11] = SRB, 0.1-200 μg/mL range, mean ± SD
[12] = SRB, 0.1-200 μg/mL range, mean ± SD, NI = lack of cytotoxicity in range
[13] = 0.1-200 μg/mL range, NI = lack of cytotoxicity in range

Row | SMILES | IC50 (A549 cell line; [1]) | IC50 (A375.S2 cell line; [2]) | IC50 (MCF7 cell line; [3]) | IC50 (HELA cell line; [4]) | IC50 (HELA cell line; [5]) | IC50 (K562 cell line; [6]) | IC50 (K562 cell line; [7]) | IC50 (PANC 1 cell line; [8]) | IC50 (T47D cell line; Homo sapiens, T47D) | IC50 (PDL Fibroblasts; [9]) | IC50 (PDL Fibroblasts; [10]) | Selectivity index SI (HELA) (PDL Fibroblasts) | Selectivity index SI (K562) (PDL Fibroblasts) | Cytotoxicity IC50 value, A549 cell line (A549 cell line) | IC50 (A549 cell line) | Cytotoxicity IC50 value, A375.S2 cell line (A375.S2 cell line) | IC50 (A375.S2 cell line) | Cytotoxicity IC50 value, HELA cell line (HELA cell line) | IC50 (PDL Fibroblasts; [13]) | IC50 value PDL Fibroblasts (PDL Fibroblasts; value in brackets) | other results
1 | CCCCCCc1ccc(Nc2c(F)cc3c(=O)c(C(=O)O)cn(C4CC4)c3c2[N+](=O)[O-])cc1 [3f, 1-cyclopropyl-6-fluoro-7-(4-hexyl-phenylamino)-8-nitro-4-oxo-1,4-dihydro-quinoline-3-carboxylic acid] | 63.9 µM and 29.9 µg/mL | 63.1 µM and 29.5 µg/mL | 135 µM and 63.3 µg/mL | 3.48 µg/mL | 7.44 ± 0.78 µM | 30 µg/mL | 64.1 ± 4.78 µM | 1.67 mM and 779 µg/mL | 141 µM and 66 µg/mL | 119 ± 19.7 µM | 55.7 µg/mL | 16.01 |  |  |  |  |  |  |  |  | 
2 | COc1ccc(Nc2c(F)cc3c(=O)c(C(=O)O)cn(C4CC4)c3c2[N+](=O)[O-])c(OC)c1 [3g, 1-cyclopropyl-7-(2,4-dimethoxy-phenylamino)-6-fluoro-8-nitro-4-oxo-1,4-dihydro-quinoline-3-carboxylic acid] | > 200 µg/mL | > 200 µg/mL | > 200 µg/mL |  | > 200 µg/mL |  | > 200 µg/mL | > 200 µg/mL | > 200 µg/mL | > 200 µg/mL |  |  |  |  |  |  |  |  |  |  | 
3 | CCn1cc(C(=O)O)c(=O)c2cc(F)c(Nc3ccc(OC)cc3OC)c(N)c21 [12c, 8-amino-7-(2,4-dimethoxy-phenylamino)-1-ethyl-6-fluoro-4-oxo-1,4-dihydro-quinoline-3-carboxylic acid] | 40.9 µM and 16.4 µg/mL | 67.3 µM and 27 µg/mL | 101 µM and 40.4 µg/mL | 15.6 µg/mL | 38.8 ± 1.91 µM | 10.6 µg/mL | 26.4 ± 4.54 µM | 93.5 µM and 37.5 µg/mL |  | 43.8 ± 6.21 µM | 17.6 µg/mL |  | 1.65 |  |  |  |  |  |  |  | 
4 | CCn1cc(C(=O)O)c(=O)c2cc(F)c3c(nnn3-c3ccccc3OC)c21 [13a, 9-ethyl-4-fluoro-3-(2-methoxy-phenyl)-6-oxo-6,9-dihydro-3H-[1,2, and 3] triazolo [4,5-h] quinoline-7-carboxylic acid] |  |  |  |  |  |  |  |  |  |  |  |  | 40.01 | 94.32 ± 1.44 µg/mL | 247 ± 3.78 µM | 203.87 ± 4.80 µg/mL | 535 ± 12.6 µM | 20.06 ± 2.62 µg/mL | 276 ± 20.7 µM | 105.13 ± 7.90 µg/mL (≈ 275 µM) | IC50 (HELA cell line): 52.6 ± 6.86 µM; Cytotoxicity IC50 value, K562 cell line (K562 cell line): 2.66 ± 0.49 µg/mL; IC50 (K562 cell line): 6.98 ± 1.28 µM; Cytotoxicity IC50 value, PANC 1 cell line (PANC 1 cell line): 118.30 ± 6.71 µg/mL; IC50 (PANC 1 cell line): 310 ± 17.6 µM; Cytotoxicity IC50 value, T47D cell line (T47D cell line; [11]): 21.93 ± 0.87 µg/mL; IC50 (T47D cell line; [12]): 57.5 ± 2.27 µM
5 | CCn1cc(C(=O)O)c(=O)c2cc(F)c3c(nnn3-c3cccc(OC)c3)c21 [13b, 9-ethyl-4-fluoro-3-(3-methoxy-phenyl)-6-oxo-6,9-dihydro-3H-[1,2, and 3] triazolo [4,5-h] quinoline-7-carboxylic acid] |  |  |  |  |  |  |  |  |  |  |  | 7.19 |  | 95.87 ± 9.20 µg/mL | 251 ± 24.1 µM | 38.96 ± 3.39 µg/mL | 102 ± 8.88 µM | 15.99 ± 1.35 µg/mL | 332 ± 14.6 µM | 126.55 ± 5.58 µg/mL (≈ 331 µM) | Cytotoxicity IC50 value, MCF7 cell line (MCF7 cell line): 159.18 ± 8.68 µg/mL; IC50 (MCF7 cell line): 417 ± 22.8 µM; IC50 (HELA cell line): 41.9 ± 3.55 µM; Cytotoxicity IC50 value, K562 cell line (K562 cell line): 22.13 ± 0.85 µg/mL; IC50 (K562 cell line): 58 ± 2.22 µM; Cytotoxicity IC50 value, T47D cell line (T47D cell line; [11]): 44.68 ± 3.49 µg/mL; IC50 (T47D cell line; [12]): 117 ± 9.15 µM
6 | N.N.[Cl][Pt][Cl] [Cisplatin, cisplatin, reference compound] |  |  |  |  |  |  |  |  |  |  |  |  |  |  |  |  |  |  | 0.71 ± 0.13 µM | 0.21 ± 0.04 µg/mL | 
